From ChEMBL document CHEMBL1201862, “PubChem BioAssay data set” (2004)
“And” between values parts separate entries of the source, which are not always exact repeats. Equal values may be shown once. The source made the active and inactive calls.

Tests used:
[1] = THP-1 cell cytotoxicity, dose response, cytotoxicity control for Vif-APOBEC3G degradation inhibitor project, THP-1 cells (AID 1117359); type: functional; details: Human immunodeficiency virus 1, THP-1
[2] = inhibitors of HIV Env-driven cell fusion, dose response, cherry-pick (AID 652057); type: functional, cell-based
[3] = CEM21 cell cytotoxicity, dose response, cytotoxicity control, plate reader, dry powder (AID 687026); type: functional, cell-based
[4] = inhibitors of clade B AD8 Env fusion, dose response, cell-based, cherry-pick (AID 652062); type: functional;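 also: luciferase signal from cell-cell fusion driven by HIV-1 clade B AD8 Env; potency is for inhibitors of fusion seen as a drop in luminescence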
[5] = off-target signal loss in HeLa-CEM21 co-culture – HeLa F-luc CTL cells, cherry-picked, counter-screen for HIV-1 Env fusion inhibitor project, dose response (AID 652040); type: functional, cell-based;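 also: potency for signal decrease marking cytotoxic or nonspecific inhibition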
[6] = biological target: Beta-2 adrenergic receptor (Homo sapiens, UniProt P07550); test: beta2AR agonists driving receptor internalization, dose response, cell-based, FAP fluorogen, flow cytometry, cherry pick 1 (AID 588763); type: functional
Chain of Beta-2 adrenergic receptor (P07550 whole entry, the tested form may be a part): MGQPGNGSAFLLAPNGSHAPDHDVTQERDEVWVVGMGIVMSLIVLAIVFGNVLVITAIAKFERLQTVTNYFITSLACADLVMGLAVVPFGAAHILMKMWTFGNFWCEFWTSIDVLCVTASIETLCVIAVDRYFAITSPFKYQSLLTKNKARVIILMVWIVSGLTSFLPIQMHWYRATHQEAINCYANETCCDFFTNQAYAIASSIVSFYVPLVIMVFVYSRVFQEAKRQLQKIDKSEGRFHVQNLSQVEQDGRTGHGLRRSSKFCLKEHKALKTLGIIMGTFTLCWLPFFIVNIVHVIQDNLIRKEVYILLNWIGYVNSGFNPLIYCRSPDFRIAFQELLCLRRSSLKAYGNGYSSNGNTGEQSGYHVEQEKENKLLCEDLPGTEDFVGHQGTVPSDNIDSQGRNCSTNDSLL

[7] = ZM109 Env clade C HIV-1 fusion inhibitors, dose response, HeLa effector, CEM target cells, luciferase, cherry-pick (AID 652058); type: functional, cell-based
[8] = biological target: T1, Oxysterols receptor LXR-beta (Homo sapiens, UniProt P55055); type: functional, cell-based;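 also: Cell-based luminescence dose-response assay of agonist activity at LXR, run as a confirmatory counterscreen to a daf-12 agonist screen; HEK293 cells with Gal4-LXR fusion and GAL4-driven luciferase reporter; agonist potency from rising luciferase signal of a Gal4-LXR reporter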
T1 sequence (P55055 whole entry): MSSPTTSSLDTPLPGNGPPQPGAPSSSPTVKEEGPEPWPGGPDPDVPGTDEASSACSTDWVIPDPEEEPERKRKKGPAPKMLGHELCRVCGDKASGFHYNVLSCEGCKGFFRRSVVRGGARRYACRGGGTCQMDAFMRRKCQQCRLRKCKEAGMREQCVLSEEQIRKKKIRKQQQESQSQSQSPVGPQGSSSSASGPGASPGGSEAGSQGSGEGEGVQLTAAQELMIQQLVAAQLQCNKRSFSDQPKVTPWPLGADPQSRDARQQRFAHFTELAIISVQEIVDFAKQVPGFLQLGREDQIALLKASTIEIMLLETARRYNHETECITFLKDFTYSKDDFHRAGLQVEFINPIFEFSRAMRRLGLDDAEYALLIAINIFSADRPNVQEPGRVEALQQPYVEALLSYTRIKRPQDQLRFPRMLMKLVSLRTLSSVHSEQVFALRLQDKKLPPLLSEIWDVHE

Protein skinhead-1 = biological target: T2, Protein skinhead-1 (Caenorhabditis elegans, UniProt P34707); type: functional
T2 sequence (P34707 whole entry): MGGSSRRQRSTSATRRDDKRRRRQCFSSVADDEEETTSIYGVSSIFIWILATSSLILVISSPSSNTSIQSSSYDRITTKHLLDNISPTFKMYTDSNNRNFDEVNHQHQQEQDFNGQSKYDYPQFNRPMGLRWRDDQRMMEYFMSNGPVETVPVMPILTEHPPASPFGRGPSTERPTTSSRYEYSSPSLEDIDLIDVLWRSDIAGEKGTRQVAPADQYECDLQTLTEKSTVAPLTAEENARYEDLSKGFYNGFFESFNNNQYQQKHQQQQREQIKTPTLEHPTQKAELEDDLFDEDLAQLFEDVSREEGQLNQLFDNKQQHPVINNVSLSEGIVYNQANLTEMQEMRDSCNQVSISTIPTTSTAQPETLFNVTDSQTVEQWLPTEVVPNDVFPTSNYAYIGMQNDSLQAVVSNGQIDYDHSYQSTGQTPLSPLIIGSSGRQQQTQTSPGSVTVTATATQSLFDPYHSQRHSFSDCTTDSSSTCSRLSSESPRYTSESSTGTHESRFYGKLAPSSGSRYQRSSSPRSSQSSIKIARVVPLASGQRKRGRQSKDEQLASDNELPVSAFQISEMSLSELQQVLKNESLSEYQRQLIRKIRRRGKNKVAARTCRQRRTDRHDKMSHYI

Transthyretin = Transthyretin (Homo sapiens, UniProt P02766); test: Luminescence-based cell-based high throughput dose response assay to identify activators of Transthyretin (TTR) transcription.; type: functional
[9] = biological target: Metabotropic glutamate receptor 5 (Rattus norvegicus, UniProt P31424); test: Identification of a glycine sulfonamide based non-MPEP site positive allosteric potentiator (PAM) of mGlu5 (calcium_assay).; type: functional
Chain of Metabotropic glutamate receptor 5 (P31424 whole entry): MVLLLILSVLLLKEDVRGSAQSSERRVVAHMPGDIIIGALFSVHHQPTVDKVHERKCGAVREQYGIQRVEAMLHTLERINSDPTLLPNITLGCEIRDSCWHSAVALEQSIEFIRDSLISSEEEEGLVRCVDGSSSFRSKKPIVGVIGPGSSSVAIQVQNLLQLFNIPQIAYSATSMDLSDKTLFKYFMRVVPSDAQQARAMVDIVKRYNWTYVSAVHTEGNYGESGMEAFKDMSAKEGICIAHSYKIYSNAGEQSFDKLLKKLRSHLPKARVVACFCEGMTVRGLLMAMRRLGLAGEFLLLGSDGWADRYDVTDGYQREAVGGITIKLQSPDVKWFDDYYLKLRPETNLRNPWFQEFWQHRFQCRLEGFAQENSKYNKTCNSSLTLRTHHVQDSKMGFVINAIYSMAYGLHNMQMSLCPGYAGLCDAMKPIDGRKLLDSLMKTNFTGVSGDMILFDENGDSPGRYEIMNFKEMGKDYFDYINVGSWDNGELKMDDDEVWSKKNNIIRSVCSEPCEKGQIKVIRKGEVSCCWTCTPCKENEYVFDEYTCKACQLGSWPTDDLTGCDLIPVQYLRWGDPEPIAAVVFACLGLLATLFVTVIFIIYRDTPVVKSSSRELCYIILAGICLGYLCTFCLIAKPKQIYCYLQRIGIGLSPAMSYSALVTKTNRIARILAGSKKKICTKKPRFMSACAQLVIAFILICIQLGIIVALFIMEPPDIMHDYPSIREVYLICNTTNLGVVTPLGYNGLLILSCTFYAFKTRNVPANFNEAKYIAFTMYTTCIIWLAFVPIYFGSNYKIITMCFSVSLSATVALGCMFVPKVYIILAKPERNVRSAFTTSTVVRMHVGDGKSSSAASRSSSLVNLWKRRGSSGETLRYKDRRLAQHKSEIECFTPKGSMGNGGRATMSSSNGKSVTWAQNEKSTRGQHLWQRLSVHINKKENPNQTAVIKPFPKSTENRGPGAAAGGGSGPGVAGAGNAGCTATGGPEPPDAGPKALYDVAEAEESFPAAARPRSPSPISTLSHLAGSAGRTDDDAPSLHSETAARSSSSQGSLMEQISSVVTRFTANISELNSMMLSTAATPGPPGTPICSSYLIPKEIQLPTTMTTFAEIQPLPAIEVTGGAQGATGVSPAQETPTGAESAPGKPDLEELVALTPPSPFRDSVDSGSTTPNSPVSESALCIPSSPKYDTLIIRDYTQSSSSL

[10] = P. falciparum Dd2 growth inhibitors, dose response, SYBR Green, cherry-picked samples (AID 1159567); type: functional, cell-based
Paired box protein Pax-8 = Paired box protein Pax-8 (Homo sapiens, UniProt Q06710); test: inhibitors of PAX8-driven TPO luciferase reporter, dose response, RMG-I cells, cherry-pick (AID 687027); type: functional, cell-based;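 also: luciferase reporter driven by Pax8 target thyroperoxidase promoter measured by SteadyGlo luminescence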
Chain of Paired box protein Pax-8 (Q06710 whole entry): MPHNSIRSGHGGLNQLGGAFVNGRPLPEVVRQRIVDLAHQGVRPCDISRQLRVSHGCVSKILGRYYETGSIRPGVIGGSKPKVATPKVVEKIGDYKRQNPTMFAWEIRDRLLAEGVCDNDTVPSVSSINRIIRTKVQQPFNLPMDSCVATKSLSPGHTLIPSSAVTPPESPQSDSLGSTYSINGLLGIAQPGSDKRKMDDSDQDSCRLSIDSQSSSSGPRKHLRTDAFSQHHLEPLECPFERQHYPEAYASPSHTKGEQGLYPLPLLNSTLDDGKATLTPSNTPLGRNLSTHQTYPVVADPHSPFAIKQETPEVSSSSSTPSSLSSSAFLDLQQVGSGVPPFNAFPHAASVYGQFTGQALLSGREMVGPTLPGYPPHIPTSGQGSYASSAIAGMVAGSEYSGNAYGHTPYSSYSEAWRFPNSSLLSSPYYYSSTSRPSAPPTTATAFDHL

[11] = PAX2 cell-based inhibition, dose response, selectivity assay for PAX8 inhibitor project, plate reader, dry powder samples (AID 743048); type: functional;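 also: HEK293 cells carrying a WT1 promoter luciferase reporter driven by expressed Pax2; potency is for inhibition of Pax2 driven reporter signal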
[12] = PAX5 activity inhibitors, dose response, selectivity assay for PAX8 inhibitor project, cell-based, plate reader, dry powder samples (AID 743047); type: functional;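 also: HEK293 cells carrying a Pax5 driven CD19 promoter luciferase reporter; potency of inhibitors that lower reporter luminescence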
[13] = cytotoxicity dependent on PAX8, dose response, cell-based, plate reader, dry powder (AID 743049); type: functional
[14] = cytotoxicity in OV-90 ovarian cancer cells, dose response, PAX8 inhibitor project, cell-based, plate reader, dry powder, SA8 (AID 743149); type: functional
[15] = cytotoxicity in COV362 ovarian cancer cells, dose response, cytotoxicity control for PAX8 inhibitor project, cell-based, plate reader, dry powder, SA12 (AID 743144); type: functional
HEK293 = test: HEK293T cell cytotoxicity, dose response, cytotoxicity control, ATP luminescence, cherry-pick samples (AID 687005); type: functional, cell-based; details: Homo sapiens;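 also: cells exposed to compound for 48 hours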
[16] = HEK293 Cytotoxicity Assay Measured in Cell-Based System Using Plate Reader - 7071-01_Inhibitor_Dose_CherryPick_Activity_Set2.; type: functional
[17] = cytotoxicity in OVCAR8 ovarian cancer cells, dose response, PAX8 project, cell-based, plate reader, dry powder samples (AID 743197); type: functional; details: OVCAR-8
[18] = NIH:OVCAR-3 ovarian cancer cell cytotoxicity, dose response, PAX8 inhibitor project, plate reader, dry powder samples (AID 743044); type: functional, cell-based
[19] = IOSE-T80 ovarian epithelial cell cytotoxicity, dose response, cytotoxicity control for PAX8 inhibitor project, plate reader, dry powder samples (AID 743045); type: functional, cell-based
[20] = IGROV1 ovarian cancer cell cytotoxicity, dose response, PAX8 inhibitor project, plate reader, dry powder samples (AID 743043); type: functional, cell-based; details: IGROV-1
[21] = A2780 ovarian cancer cell cytotoxicity, dose response, cytotoxicity control, plate reader, dry powder samples (AID 743046); type: functional, cell-based

Q: Which CC50 [1] does the source give for CC(C)Oc1ccc(C(=O)N(Cc2ccco2)C2CCS(=O)(=O)C2)cc1 (configuration not stated) here?
A: > 40 µM (active)

Q: Which AC50 [2] does the source give for O=C(CCc1ccc(S(=O)(=O)N2CCOCC2)cc1)Nc1nc(COc2ccccc2)cs1 here?
A: 1.65 µM (active)

Q: And the AC50 [3]?
A: > 70 µM (inactive) and 50.5 µM (active)

Q: What about the AC50 [4] of the same compound?
A: 4.58 µM (active)

Q: What about the AC50 [5] of the same compound?
A: > 70 µM (inactive)

Q: What about the EC50 [6] of the same compound?
A: 1.4 µM (active)

Q: What about the AC50 [7] of the same compound?
A: 1.07 µM (active)

Q: With Fc1ccccc1-c1nc(-c2ccc(Br)o2)no1 as the compound, how does the EC50 [8] read?
A: > 67.6 µM (inactive)

Q: What about the EC50 (cells) of the same compound?
A: > 67.6 µM (inactive)

Q: And the IC50 (Protein skinhead-1)?
A: > 100 µM (inactive)

Q: Which EC50 (Transthyretin) does the source give for Cn1ncc(Cl)c1C(=O)N1CCc2ccccc21 here?
A: > 167 µM (inactive)

Q: For O=S(=O)(c1ccc(C#Cc2cccc(F)c2)cc1)N1CCOCC1, which EC50 [9] is on record?
A: 0.427 µM

Q: Which AC50 [10] does the source give for N#C[C@H]1[C@@H](c2ccc(C#CC3CCCCC3)cc2)[C@@H](CO)N1S(=O)(=O)c1ccccc1 here?
A: 4.94 µM (active)

Q: What about the AC50 (Paired box protein Pax-8) of the same compound?
A: 8.09 µM (active)

Q: What about the AC50 [11] of the same compound?
A: 19 µM (active)

Q: And the AC50 [12]?
A: 19.3 µM (active)

Q: What about the AC50 [13] of the same compound?
A: 18.7 µM (active)

Q: What about the AC50 [14] of the same compound?
A: 32.3 µM (active)

Q: And the AC50 [15]?
A: 61.4 µM (active)

Q: For Cc1noc(C)c1NC(=O)N(C)C[C@@H]1Oc2ccc(NC(=O)NC(C)C)cc2CC(=O)N([C@H](C)CO)C[C@H]1C, which AC50 (HEK293) is on record?
A: 1.61 µM (active)

Q: And the AC50 [16]?
A: 1.61 µM (active)

Q: With Cc1ccc(S(=O)(=O)N(C)C[C@@H]2Oc3ccc(NC(=O)Nc4ccc(C(F)(F)F)cc4)cc3CC(=O)N([C@H](C)CO)C[C@@H]2C)cc1 as the compound, how does the AC50 (Paired box protein Pax-8) read?
A: 3.06 µM (active)

Q: What about the AC50 [17] of the same compound?
A: 14.3 µM (active)

Q: And the AC50 [18]?
A: 3.11 µM (active)

Q: What about the AC50 [19] of the same compound?
A: 9.76 µM (active)

Q: What about the AC50 [20] of the same compound?
A: 10.1 µM (active)

Q: What about the AC50 [21] of the same compound?
A: 20.7 µM (active)
